In PMC5369982, “Near infrared fluorescent imaging of choline kinase alpha expression and inhibition in breast tumors” (Oncotarget, 2017):
Like-named read-outs stand apart in the source and are kept apart here.

How the values were obtained:
MCF7-CK+ cells = experiment: Cell viability, Trypan blue exclusion; assay type: cell-based, human; settings: 17 h, ± SEM, 3 experiments
Method: (§1) MCF7 cells were plated for Trypan exclusion assays at 1.0 × 10^6 cells/well in 6-well plates and treated with MN58b or JAS239, synthesized in house. At 17 h, cells were collected by trypsinization, stained with Trypan Blue, and counted using a Neubauer hemocytometer. For 3-(4,5-Dimethylthiazol-2-yl)-2,5-diphenyltetrazolium bromide (MTT) assays, cells in 96-well plates (7.5 × 10^4 cells/well) were treated with JAS239 or MN58b overnight, and stained with 20 μL of 5 mg/mL MTT (Sigma-Aldrich) for 2 h, lysed with DMSO and scanned for absorbance using a SpectraMax M5 plate reader (Molecular Devices) at 550 nm, subtracting background absorbance at 690 nm from each sample.
(§2) Supplementary Figure 2: Breast cancer cell viability in response to ChoK inhibitors. (A–D) Cell viability measurements via […]
(§3) (A) or JAS239 (B). MTT assays were performed on MDA-MB-231 and 4175-Luc+ (C, D) cells exposed to MN58b (C) or JAS239 (D).
(§4) Values are reported relative to untreated control groups and represent ± SEM for 3 separate experiments. At higher JAS239 concentrations, the MTT assay was used as JAS239 interfered with Trypan blue counting. There was no overlap in absorbance readings between the MTT formazan product and JAS239.
(§5) (1 picture or pasted object on this page, not shown here)

MCF7-EV cells = experiment: Cell viability, Trypan blue exclusion; assay type: cell-based, human; settings: 17 h, ± SEM, 3 experiments
Method: as §1, §2, §3, §4, §5

[1] = Blood toxicology after the 5-day treatment; assay type: in vivo; settings: 5 days i.p.; MN58b 2 mg/kg, JAS239 4 mg/kg
Method: A cohort of 15 mice was inoculated with MDA-MB-231 cells. When a volume of 300 μL was reached, tumors were scanned using MRS. Tumor volumes were measured using T2-weighted images. The animals were separated into treatment groups, and for 5 consecutive days each group was injected i.p. with 100 μL of DMSO/saline vehicle (n = 5), 2 mg/kg MN58b (n = 4), or 4 mg/kg JAS239 (n = 3). Initial cohort sizes were 5 per condition, but some animals had to be removed from the study because the treatment was so effective that we were unable to place voxels within post-treatment tumors that were too small. Follow-up MRI/MRS scanning was performed on day 7 to assess tumor growth inhibition and changes in metabolite levels. After imaging, blood was collected into heparin-coated tubes by cardiac puncture. Resected tumors were embedded in Optimum Cryo-Temperature (Sakura Finetek), flash-frozen in liquid nitrogen, and stored at –80 °C. Blood samples were submitted to the Ryan Veterinary Clinic Diagnostic labs for toxicology.
Supplementary Figure 6: Both ChoKα inhibitors show early signs of tumor growth inhibition and apoptosis, however JAS239 is better tolerated in animals. (A) Vehicle-treated tumors increased in size during the treatment regimen, whereas the tumor volumes of MN58b and JAS239 treated mice were unchanged. […]

ChoKα = ChoKα (Homo sapiens, UniProt P35790); experiment: ChoKα activity assay (14C-choline phosphorylation to 14C-PC in cells); assay type: cell-based; parameters: endogenous in cells; host or cells: MCF7-EV, MCF7-CK+ (stably overexpressing ChoK), MDA-MB-231, 4175-Luc+; settings: analyzed after 2 h, ± SEM, 3 experiments, read-out: IC50 (14C-PC production)
ChoKα, sequence (P35790 whole entry): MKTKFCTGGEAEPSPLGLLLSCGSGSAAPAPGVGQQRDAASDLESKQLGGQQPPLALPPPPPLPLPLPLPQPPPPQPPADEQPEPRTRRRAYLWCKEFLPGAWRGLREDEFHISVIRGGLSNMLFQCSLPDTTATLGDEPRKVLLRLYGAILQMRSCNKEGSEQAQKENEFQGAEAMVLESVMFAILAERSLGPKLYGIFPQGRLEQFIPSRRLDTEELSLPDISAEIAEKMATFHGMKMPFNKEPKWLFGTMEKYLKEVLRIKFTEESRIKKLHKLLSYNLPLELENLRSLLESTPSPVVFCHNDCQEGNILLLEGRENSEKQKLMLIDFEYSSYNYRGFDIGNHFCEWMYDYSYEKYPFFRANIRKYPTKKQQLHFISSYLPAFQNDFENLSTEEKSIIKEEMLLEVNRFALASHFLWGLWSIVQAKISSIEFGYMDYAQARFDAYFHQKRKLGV
Method: Cells in 6-well plates (1.0 × 10^6 cells/well) were incubated for 24 h then treated with JAS239 or MN58b. After 1 h, cells were spiked for 1 h with 0.5 μCi/mL [methyl-^14C]-choline (PerkinElmer) and fixed with trichloroacetic acid. Aqueous cellular extracts were separated by thin layer chromatography (TLC) and the ^14C-PC production measured by autoradiography on a Fujifilm FLA-7000 using previously described methods. […]
Supplementary Figure 1: Characterization of ChoKα in a panel of human breast cancer cell lines. (A) Determination of
ChoKα expression by Western blot confirms elevated ChoKα protein found in MCF7-CK+ cells. (B) Conversion of 14C-choline to 14C-PC
follows the pattern expected from ChoKα expression levels in (A). (C–F) Dose-response curves comparing the effect of MN58b ( C, D) or
JAS239 (E, F) on 14C-choline phosphorylation in MCF7-EV and MCF7-CK+ cells (C, E) or MDA-MB-231 and 4175-Luc+ cells (D, F).
Values are reported as a percentage of the untreated EV group (for MCF7 cells) or untreated MDA-MB-231 group (for MDA-MB-231 and
4175-Luc+), and represent ± SEM for 3 separate experiments.

[2] = parameters: method as in PMID 10397253; settings: cited from earlier work

Molecule	EC50 (MCF7-CK+ cells) [µM]	EC50 (MCF7-EV cells) [µM]	Toxicology [1]	IC50 (ChoKα; 4175-Luc+ cells) [µM]	IC50 (ChoKα; MCF7-CK+ cells) [µM]	IC50 (ChoKα; MCF7-EV cells) [µM]	IC50 (ChoKα; MDA-MB-231 cells) [µM]	Tolerability ([2]; 10 mg/kg)	Tolerability ([2]; dosed daily for 5 days at 5 mg/kg)
CC1(C)C(=C/C=C/C=C/C=C/C2=[N+](CCO)c3ccccc3C2(C)C)N(CCO)c2ccccc21 [JAS239]	5.33 ± 0.84	4.04 ± 0.55	No observable or measurable toxicity	9.89 ± 0.24	10.3 ± 2.48	11.1 ± 5.64	9.92 ± 0.22		
MN58b [reference compound]	6.86 ± 0.43	3.29 ± 0.48	elevation of blood urea nitrogen	4.59 ± 0.55	2.36 ± 0.28	3.85 ± 0.42	4.36 ± 1.37	lethal	tolerable
